Laboratory results from publication PMC6934184, “Selective DNA-PKcs inhibition extends the therapeutic index of localized radiotherapy and chemotherapy” (The Journal of Clinical Investigation, 2019).

Legend:
SJSA-1 = assay: clonogenic survival with etoposide; format: cell-based, human; details: NU5455 1 μM, 24 hours
Protocol: (§1) Cell line γH2AX and 53BP1 foci immunofluorescence and quantitation
(§2) Cells grown on coverslips or in 96-well plates were treated with 1 or 5 µM NU5455 or DMSO 1 hour prior to irradiation (0, 2.5 or 10 Gy) using an RS 320 X-ray Research System (Gulmay Medical). At set timepoints (15 or 30 minutes, or 1, 4, 5, 6, or 24 hours post-irradiation), cells were washed and fixed in methanol or 3% paraformaldehyde (PFA). […] In A549 and Calu-6, cells were Hoechst stained (5 µg/ml), and the average numbers of γH2AX and 53BP1 foci per cell were quantified from 400 nuclei per sample using an In Cell analyzer 1000 (GE Healthcare). For MCF7 cells, coverslips were mounted using Vectashield mounting medium with DAPI (Vector Labs) and imaged using a Leica TCS SPE confocal fluorescence microscope. Total fluorescence intensity was determined using ImagePro Plus 5.0 software (Media Cybernetics). […]
(§3) Cells were washed in phosphate-buffered saline (PBS), trypsinized and counted. […] Colonies were fixed using Carnoys fixture (75% v/v methanol, 25% v/v acetic acid, Fisher), stained with crystal violet (0.4% w/v in water), and counted using a ColCount automated colony counter (Oxford Optronics). Cell survival was calculated as a percentage of the untreated control. […]

MCF7 cells = assay: clonogenic survival with IR; format: cell-based, Human; details: 1 μM
Protocol: as §1, §2, §3

SMILES: CN(C(=O)CN1CCOCC1)c1ccc2sc3c(-c4cccc5c(=O)cc(N6CC7CCC(C6)O7)oc45)cccc3c2c1 [NU5455]
- Fold potentiation of etoposide (LD80, SER80) (SJSA-1): 4.1 fold
- radio-enhancement (LD80) (MCF7 cells; 24-hour treatment after IR): 2.4 fold
- radio-enhancement (LD80) (MCF7 cells; 1 hour of treatment after IR): 1.2 fold
